{"source": "patent US20230157939A1", "about": "“PERSONAL CARE COMPOSITIONS WITH ENHANCED SOLUBILITY ACTIVES” (Conopco, Inc., d/b/a UNILEVER, priority 2020, published 2023)", "key": {"[1]": {"experiment": "Odor and H2S generation (H2S test strip) of cystine / cystine derivative samples", "assay_type": "physicochemical", "details": "summary of the Examples; monitored as H2S", "method": "Evaluation of Cystine Crystallization and Odor in the Presence of Cystine Derivatives Samples for cystine crystallization evaluation were prepared by dissolving cystine (10 mg) alone or in combination with NDAC (N,N′-diacetyl-L-cystine) (55 mg), NACys (N-acetyl-L-cysteine) (28 mg) or L-cystine diethyl ester dihydrochloride (DEC) (62 mg) in 0.775M NaOH (1 ml) or Epilife™ cell culture media (60 uM calcium chloride, HEPES/bicarbonate buffered; Thermofisher Scientific) (1 ml) and the pH adjusted to 7.0 by adding HCl (12.1M). A hydrogen sulfide (H2S) test strip (Sigma) was placed above the sample solution and the samples sealed. Visual appearance, odor and H2S generation (unchanged test strip white color=no H2S generated; changed test strip brown/black color=H2S generated) were monitored up to 4 months and recorded."}, "[2]": {"details": "according to Zhu, et al.; cited from earlier work"}, "[3]": {"details": "at 25° C.; cited from earlier work"}}}
{"smiles": "CCOC(=O)[C@@H](N)CSSC[C@H](N)C(=O)OCC", "note": "[DEC, L-Cystine diethyl ester]", "values": [{"measurement": "odor of the cystine derivative, in words", "setting": "[1]", "result": "unpleasant sulfurous odor"}]}
{"smiles": "CC(=O)N[C@@H](CS)C(=O)O", "note": "[NACys, N-Acetyl-L-Cysteine]", "values": [{"measurement": "odor of the cystine derivative, in words", "setting": "[1]", "result": "upleasant sulfurous odor"}]}
{"smiles": "CC(=O)N[C@@H](CSSC[C@H](NC(C)=O)C(=O)O)C(=O)O", "note": "[NDAC, N,N′-Diacetyl-L-Cystine]", "values": [{"measurement": "inhibitor of cystine crystal growth", "setting": "[2]", "result": "not effective"}]}
{"smiles": "N[C@@H](CSSC[C@H](N)C(=O)O)C(=O)O", "note": "[cystine, L-Cystine]", "values": [{"measurement": "solubility of cystine in water", "setting": "[3]", "result": 0.112, "unit": "mg/mL"}]}
